Measurements: US8597616B2 (priority 2007, dated 2013)

Columns and labels:
normovolemic swine model = conditions: in vivo
[1] = system: swine model of cardiac arrest; conditions: in vivo

## CNC[C@H](O)c1ccc(O)c(O)c1 [epinephrine, (R)-4-(1-hydroxy-2-(methylamino)ethyl)benzene-1,2-diol]
Normovolemic swine model
  increase of MAP over baseline: more than 60 mmHg
  time post injection at which increases in MAP were detected: 10 to 20 s
  time post injection to peak MAP: ≤ 60 s
Normovolemic swine model; 0.4 mg/kg
  sustained MAP: more than 60 mmHg
Normovolemic swine model; iv
  time post-injection at which an increase in MAP was detected: 30 s
Normovolemic swine model; swine
  time from administration until absorbed and placed into the circulating blood: 10 to 20 s
[1]
  peak MAP: 90 mmHg
  sustained pressure over baseline: greater than 50 mmHg
  time post injection at which increases in MAP were detected: 10 to 20 s
  time post injection to peak MAP: ≤ 60 s
  time to MAP peak at sustained pressure over baseline: ≤ 80 s
  time until physiological effects (increase in MAP over baseline MAP) were detected: < 20 seconds
  time until rapid and sustained MAP occurred: < 60 s
